# Reference: patent US20070281036A1, “System and method of delivering a desired material to a cell” (University of Vermont and State Agricultural College, priority 2005, published 2007)
# Legend:
# [1] = test system: phosphorylated histone protein H2AX (γH2AX); assay: Immunocytochemical analysis of γH2AX; format: cell-based, human; settings: 80 nM DOX; 8 and 24 h; compared to control
# Method: Mechanisms of Cytotoxicity. To explore mechanisms of toxicity of DOX at low concentrations delivered by APMS, levels of phosphorylated histone protein H2AX (γH2AX), a marker of DNA double strand breaks, and Apoptosis Inducing Factor (AIF), a marker of mitochondrial mediated apoptosis, were analyzed.
# Immunocytochemical Analysis ofphosphorylated histone protein H2AX (γH2AX). Monolayers of cells were grown on glass coverslips and treated as described above. Cells were then washed in PBS, then fixed in 4% paraformaldehyde and permeabilized in 0.1% Triton X-100. Cells were blocked for 1 h at room temperature in PBS containing 3% bovine serum albumin (BSA), then incubated in a 1:500 dilution of mouse monoclonal anti-phospho-histone H2AX antibody (#05-636, Upstate Cell Signaling, Charlottesville, Va.) in 3% BSA overnight at 4° C. Cells were then washed in PBS and incubated in a 1:300 dilution of goat anti-mouse IgO conjugated to Alexa-647 fluorescent tag (Molecular Probes, Invitrogen) in PBS for 45 min at room temperature in the dark. […] Coverslips were then washed and mounted on glass slides using Aqua Poly/Mount (#18606, Polysciences, Inc., Warrington, Pa.) and analyzed using a Zeiss LSM 510 META confocal scanning laser microscope (Carl Zeiss Microimaging).
# AKT = assay: Western blot for phosphorylated AKT; format: cell-based, human; settings: 80 nM DOX; each time point
# Method: (§1) Western Blot Analyses for Phosphorylated ERK's1/2 and AKT To determine whether DOX at low concentrations delivered by APMS modified signaling pathways associated with cell survival, nearly confluent MM cells were washed 3× with cold PBS, scraped from culture plates, and collected by centrifugation at 14,000 rpm for 1 min. The pellet was resuspended in lysis buffer [20 mM Tris (pH 7.4), 1% Triton X-100, 10% glycerol, 137 mM NaCl, 2 mM EDTA, 25 mM β-glycerophosphate, 1 mM Na3VO4, 2 mM pyrophosphate, 1 mM PMSF, 10 μg/ml leupeptin, 1 mM DTT, 10 mM NaF, 1% aprotinin], incubated at 4° C. for 15 min, and centrifuged at 14,000 rpm for 20 min. Protein concentrations were determined using a Bio-Rad RC-DC Assay (Bio-Rad Laboratories, Hercules, Calif.). […] of protein in sample buffer [62.5 mM Tris-HCl (pH 6.8), 2% sodium dodecyl sulfate (SDS), 10% glycerol, 50 mM dithiothreitol, 0.1% w/v bromophenol blue] was resolved by electrophoresis in 10% SDS-polyacrylamide gels, and transferred to nitrocellulose using a Mini Trans-Blot Cell apparatus (Bio-Rad Laboratories). […] Blots were washed 3× in TBS/0.1% Tween-20, and protein bands were visualized with the ECL Western Blotting Detection Reagents (Amersham Biosciences, GE Healthecare UK Limited, Buckinghamshire, UK) and quantitated using a Bio-Rad phosphorimager.
# [2] = test system: human mesothelioma (MM) cells; assay: LDH release assay of cell lysis, MM cells; settings: doses of DOX ranging from 800 nM to 2000 nM; 48 h
# Method: Cells were plated and grown to 70-80% confluence at 37° C. in complete medium. Medium was aspirated and replaced with maintenance medium containing 0.5% FBS, and incubated for 24 hrs.
# Briefly, cells were treated with APMS and/or DOX alone and in combination for varying amounts of time, and 50 μl of the supernatant was removed (in triplicate) and placed into wells of a 96-well plate. Fifty μl of substrate buffer was added to each well, and the plate was incubated for 30 min at room temperature in the dark. Fifty μl of stop solution was then added, and plates were read at 490 nm.
# ERK1/2 = assay: Western blot for phosphorylated ERK1/2; format: cell-based, human; settings: 80 nM DOX; 4, 8, 24 and 48 h
# Method: as §1
# human mesothelioma cells = format: cell-based
# Method: We have also modified existing HPLC methods (Andersen et al, 1993, 1994; De Bruijn et al, 1999) to compare the amounts of DOX transferred to cellular interiors by DOX-loaded APMS and DOX alone. More DOX is transferred to cells when it is preloaded into APMS than when it is administered alone. Briefly, measurement of cellular DOX concentrations was accomplished by lysis and enzymatic digestion of the cellular contents, along with centrifugation. […] Similar methodology was used to quantify the amount of extracellular DOX, and since the total amount of DOX within the APMS particles prior to its addition to the cell culture was known, the amount of DOX remaining within the particles could be determined (FIG. 7). Intracellular and extracellular amounts of DOX were measured by fluorescence HPLC after digestion and release of DOX from cellular material (FIG. 7A). […]
# Preloading APMS with Doxorubicin (DOX). […] The concentration of DOX within the APMS were calculated theoretically and verified via HPLC following hydration overnight in water or methanol at room temperature, as previously described (13). Concentrations of DOX in cells were measured. […] Similar methodology was used to quantify the amount of extracellular DOX, and since the total amount of DOX within the APMS particles prior to its addition to the cell culture was known, the amount of DOX remaining within the particles could be determined.
# MM cells [3] = assay: MTS cell viability assay; format: cell-based, human; settings: 80 nM DOX; varying amounts of time
# Method: Cell viability was measured in treated cells by using the calorimetric MTS Assay, CellTiter 96 AQueous One Solution Cell Proliferation Assay (Promega) as per the manufacturer's recommendations. Briefly, 5×10^3 cells were plated in a 96-well microtiter plate and allowed to recover overnight. Medium was aspirated, and cells were maintained in a low serum-containing medium for 24 h prior to treatment for varying amounts of time with APMS and/or DOX. MTS reagent was added, plates were incubated at 37° C. for 2-3 h and the absorbance of the wells was read at 492 nm as a measure of cell viability.
# NF-κB = NF-κB electrophoretic mobility shift assay; format: cell-based, human
# Method: NF-κB Electrophoretic Mobility Shift Assay. Electrophoretic gel mobility shift assays were used to assess the binding of NF-κB to DNA. Nuclear extracts of MM cells treated with 80 nM DOX, 100 μM DOX, APMS-TEG, APMS-TEG preloaded with 80 nM DOX (APMS-DOX80) for 4 h, were prepared as described previously (14). Samples were treated with or without TNF-α, 1 h prior to harvesting nuclear protein. The amount of protein in each sample was determined with the Bio-Rad protein assay (Bio-Rad). A ^32P-end-labeled double stranded oligodeoxynucleotide representing the specific element that contains an NF-κB consensus sequence (E3292, Promega, Madison, Wis.) was incubated with 3 μg of extract as described previously (15). The components of the NF-κB complex were identified by antibodies specific for p50 and p65 proteins (Santa Cruz Biotechnology, Inc., Santa Cruz, Calif.). Autoradiograms were developed and quantitated with a Bio-Rad phosphorimager.
# MM cells [4] = assay: Flow cytometry of mechanisms of APMS uptake; format: cell-based, human; settings: 30 min pretreatment; chlorpromazine 5 μg/ml, cytochalasin D 1 μM, filipin 6.25 μg/ml; vs control at 37° C.
# Method: Cells were exposed for 30 min to chemical inhibitors of specific uptake mechanisms: chlorpromazine ([…]), cytochalasin D (1 μM), or filipin (6.25 μg/ml), i.e. at effective concentrations as reported in the literature (25-29), or incubated at 4° C. for 30 min prior to addition of APMS for various amounts of time. Hoechst 33342 nucleic acid dye (16.2 μM) (Molecular Probes, Invitrogen) was added 15 min prior to harvesting cells. Cells were washed once in PBS and removed from dishes using Accutase cell detachment solution (Innovative Cell Technologies, Inc. San Diego, Calif.), pelleted by centrifugation, resuspended in calcium and magnesium-free phosphate buffered saline (PBS), and kept on ice until analyzed. Samples were analyzed using a BD LSRII flow cytometer (BD Biosciences, San Jose, Calif.) equipped with a Sapphire 488 (Coherent, Santa Clara, Calif.) laser which emits at 488 nm to excite the Alexa 488 dye, and a solid state Xcite (Lightwave) which emits at 355 nm to excite the Hoechst 333342 nucleic acid dye (Molecular Probes, Invitrogen). Data analysis was performed at the time of acquisition using Flow Jo (Tree Star, Inc., Ashland, Oreg.). This software package is an experiment-based flow cytometry data analysis package designed for multi-color research.
# To verify that the gating used in determining cell populations was accurate, FACS analysis was performed on different populations. Populations of cells/APMS were selected based on their locations on histograms, and were sorted, collected and mounted on glass slides using cytocentriftigation. […] The fluorescent signals from Alexa 488 were detected using 530/30 BP and 505 LP filters. Hoechst staining was detected using 440/40 BP filter. Identification and quantification of populations on cytospins were performed manually with phase contrast and fluorescence microscopy using an Olympus BX50 microscope (Olympus America, Lake Success, N.Y.).
molecule,measurement,setting,value
"COc1cccc2c1C(=O)c1c(O)c3c(c(O)c1C2=O)C[C@@](O)(C(=O)CO)C[C@@H]3O[C@H]1C[C@H](N)[C@H](O)[C@H](C)O1 [DOX, doxorubicin]",levels of γH2AX,[1],increased
same,phospho-AKT: total AKT ratios,AKT,did not significantly affect
same,cell death compared to total LDH released from lysed cells,[2],10-13%
same,phospho-ERK1/2: total ERK1/2 ratio,ERK1/2,do not significantly affect
same,amount of DOX transferred to the cell relative to DOX preloaded into APMS,human mesothelioma cells,Approximately half as much
same,"maximum amount of DOX transferred to the cellular interior, of the initial dose",human mesothelioma cells; human,approximately 25%
same,cell viability (MTS),MM cells [3],no significant difference
same,NF-κB-DNA binding after adding TNF-α 1 hr prior to harvesting,NF-κB; 80 nM DOX,further increased the DNA binding
same,NF-κB-DNA binding after adding TNF-α for 1 h prior to harvesting,NF-κB; 100 μM DOX,could not be reversed
same,NF-κB-DNA binding activity,"NF-κB; 100 μM DOX (a lethal concentration), 4 h",ablated
same,NF-κB-DNA binding activity,"NF-κB; 4 h exposure, 80 nM DOX, compared to controls",increased
TNF-α,NF-κB DNA binding,NF-κB; 1 hr incubation,dramatically increased DNA binding
CN(C)CCCN1c2ccccc2Sc2ccc(Cl)cc21 [chlorpromazine],effect of inhibitor pretreatment on APMS-TEG particle uptake,MM cells [4],no inhibition
C=C1[C@@H](C)[C@H]2[C@H](Cc3ccccc3)NC(=O)[C@]23[C@H](OC(C)=O)/C=C/[C@@](C)(O)C(=O)[C@@H](C)C/C=C/[C@H]3[C@@H]1O [cytochalasin D],effect of inhibitor pretreatment on APMS-TEG particle uptake,MM cells [4],decreased numbers of APMS-containing cells
CCCCC[C@@H](O)[C@H]1C(=O)O[C@H](C)[C@@H](O)/C=C/C=C/C=C/C=C/C=C(\C)[C@@H](O)C[C@H](O)C[C@H](O)C[C@H](O)C[C@H](O)C[C@H](O)C[C@@H]1O [filipin],effect of inhibitor pretreatment on APMS-TEG particle uptake,MM cells [4],no inhibition
